# According to publication PMC11940505, “Antivirulence Properties of Kuraridin Against Methicillin-Resistant Staphylococcus aureus (MRSA)” (Biomedicines, 2025):
# Molecular target: T1, Sortase A (SrtA) (Staphylococcus aureus, UniProt Q2FV99)
# T1 construct: recombinant SrtA enzyme (BPS Bioscience)
# Assay: fluorescence cleavage assay of Abz-LPETG-K(Dnp)-NH2 with recombinant SrtA
# Type: biochemical
# T1 sequence (Q2FV99 whole entry): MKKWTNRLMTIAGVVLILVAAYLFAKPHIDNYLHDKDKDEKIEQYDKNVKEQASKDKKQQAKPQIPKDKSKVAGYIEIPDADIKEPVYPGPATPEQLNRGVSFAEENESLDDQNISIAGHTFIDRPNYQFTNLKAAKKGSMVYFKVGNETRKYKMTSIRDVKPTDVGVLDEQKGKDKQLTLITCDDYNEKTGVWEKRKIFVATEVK
structure (smiles),measurement,value
"C=C(C)[C@H](CC=C(C)C)Cc1c(O)cc(OC)c(C(=O)/C=C/c2ccc(O)cc2O)c1O [Kuraridin, (E)-1-[2,4-dihydroxy-6-methoxy-3-(5-methyl-2-prop-1-en-2-ylhex-4-enyl)phenyl]-3-(2,4-dihydroxyphenyl)prop-2-en-1-one]",fluorescence cleavage assay of Abz-LPETG-K(Dnp)-NH2 with recombinant SrtA,LogIC50 1.699 ± 0.055
